For one experiment, the system named is H1299 cell line. Put plainly: In vitro antiproliferation of H1299 cells (MTT method). Format: cell-based. Conditions: Homo sapiens, NCI-H1299, 72 h, means ± SD from three determinations. As for the experimental part: Then, some representative compounds were picked out to evaluate their antiproliferative activity (H1299 cell line) by the MTT method (Table 4).
2 × 10^3 cells were seeded in a 96-well plate before starting the assay and they were cultured at 37 °C. After seeding for 24 h, cells were treated with inhibitors with a specific concentration and incubated at 37 °C for 72 h, followed by incubation with 0.5 mg mL^−1 MTT for 4 h at 37 °C. Then, 200 µL of DMSO was added and the absorbance was measured at 570 nm.
(In general: Tetrazolium dyes change colour on reduction, which living cells bring about.)

Another experiment has as its system enolase, PK, LDH. Put plainly: Counter-screen assay (coupled enzymes without PGAM1, 2PG as substrate). It is filed as biochemical. As to the method: The counter-screen assay was then performed to exclude the off-target inhibition against other enzymes in the in vitro assay (Table 3).
In general terms: The purpose of a counterscreen is to sort out artefacts and off-target activity.

The test system of the next experiment is H1299 cell. Particulars: Figure 1; ref 14 (PGMI-004A), ref 20 (EGCG); cited from earlier work.
The test system of the next experiment is PGAM1. Particulars: Figure 1; ref 14 (PGMI-004A), ref 20 (EGCG); cited from earlier work.

Take `O=c1c2c(O)cccc2oc2cc(NS(=O)(=O)c3cccc(Cl)c3F)cc(O)c12` [Compound 9h, 3-Chloro-N-(1,8-dihydroxy-9-oxo-9H-xanthen-3-yl)-2-fluorobenzenesulfonamide]: the IC50 – broadly, the concentration that inhibits the measured activity by half – with H1299 cell line stood at 14.1 ± 1.9 µM. In the experiment with enolase, PK, LDH, the “Counter-Screen Assay (5 μM), inhibition ratio against the other three enzymes” value was 12%.
`CC(C)(C)c1ccc(S(=O)(=O)Nc2cc(O)c3c(=O)c4c(O)cccc4oc3c2)cc1` [Compound 9k, 4-(tert-Butyl)-N-(1,8-dihydroxy-9-oxo-9H-xanthen-3-yl)benzenesulfonamide] returned an IC50 with H1299 cell line of 21.1 ± 1.7 µM. In addition, the “Counter-Screen Assay (5 μM), inhibition ratio against the other three enzymes” value in the experiment on enolase, PK, LDH is reported as 12%.
In the experiment on H1299 cell line, `O=c1c2c(O)cccc2oc2cc(NS(=O)(=O)c3ccc(C4CCCCC4)cc3)cc(O)c12` [Compound 9l, 4-Cyclohexyl-N-(1,8-dihydroxy-9-oxo-9H-xanthen-3-yl)benzenesulfonamide] returned an IC50 of 18.5 ± 2.3 µM. Also, in the experiment on enolase, PK, LDH, the “Counter-Screen Assay (5 μM), inhibition ratio against the other three enzymes” value came to 15%.
`O=c1c2c(O)cccc2oc2cc(NS(=O)(=O)c3ccc(-c4ccccc4)cc3)cc(O)c12` [Compound 9m, N-(1,8-Dihydroxy-9-oxo-9H-xanthen-3-yl)-[1,1′-biphenyl]-4-sulfonamide] showed an IC50 with H1299 cell line of 20.1 ± 1.4 µM. In addition, the “Counter-Screen Assay (5 μM), inhibition ratio against the other three enzymes” value in the experiment with enolase, PK, LDH is reported as 9%.
As for `O=c1c2c(O)cccc2oc2cc(NS(=O)(=O)c3cccc4ccccc34)cc(O)c12` [Compound 9n, N-(1,8-Dihydroxy-9-oxo-9H-xanthen-3-yl)naphthalene-1-sulfonamide], the “Counter-Screen Assay (5 μM), inhibition ratio against the other three enzymes” value with enolase, PK, LDH came out at 13%.
In the case of `COc1cccc2c(=O)c3c(O)cc(NS(=O)(=O)c4ccc(-c5ccccc5)cc4)cc3oc12` [Compound 15b, N-(1-Hydroxy-5-methoxy-9-oxo-9H-xanthen-3-yl)-[1,1′-biphenyl]-4-sulfonamide], the IC50 with H1299 cell line came to 42.7 ± 3.9 µM. In the experiment with enolase, PK, LDH, the “Counter-Screen Assay (5 μM), inhibition ratio against the other three enzymes” value was found to be 13%.
For `Cc1cccc2c(=O)c3c(O)cc(NS(=O)(=O)c4ccc(-c5ccccc5)cc4)cc3oc12` [Compound 15c, N-(1-Hydroxy-5-methyl-9-oxo-9H-xanthen-3-yl)-[1,1′-biphenyl]-4-sulfonamide], the “Counter-Screen Assay (5 μM), inhibition ratio against the other three enzymes” value in the experiment with enolase, PK, LDH stood at 7%.
`COc1ccc2oc3cc(NS(=O)(=O)c4ccc(-c5ccccc5)cc4)cc(O)c3c(=O)c2c1` [Compound 15d, N-(1-Hydroxy-7-methoxy-9-oxo-9H-xanthen-3-yl)-[1,1′-biphenyl]-4-sulfonamide] yielded a half-inhibitory concentration (IC50) with H1299 cell line of 19.6 ± 2.2 µM. The “Counter-Screen Assay (5 μM), inhibition ratio against the other three enzymes” value in the experiment on enolase, PK, LDH was found to be 6%.
As to `Cc1ccc2oc3cc(NS(=O)(=O)c4ccc(-c5ccccc5)cc4)cc(O)c3c(=O)c2c1` [Compound 15e, N-(1-Hydroxy-7-methyl-9-oxo-9H-xanthen-3-yl)-[1,1′-biphenyl]-4-sulfonamide], the “Counter-Screen Assay (5 μM), inhibition ratio against the other three enzymes” value with enolase, PK, LDH is reported as 7%.
For the compound `O=c1c2cc(Cl)ccc2oc2cc(NS(=O)(=O)c3ccc(-c4ccccc4)cc3)cc(O)c12` [Compound 15f, N-(7-Chloro-1-hydroxy-9-oxo-9H-xanthen-3-yl)-[1,1′-biphenyl]-4-sulfonamide], in the experiment with H1299 cell line, the IC50 turned out to be 32.7 ± 0.9 µM. For the same compound, the “Counter-Screen Assay (5 μM), inhibition ratio against the other three enzymes” value in the experiment with enolase, PK, LDH came out at 8%.
Compound `O=c1c2cc([N+](=O)[O-])ccc2oc2cc(NS(=O)(=O)c3ccc(-c4ccccc4)cc3)cc(O)c12` [Compound 15h, N-(1-Hydroxy-7-nitro-9-oxo-9H-xanthen-3-yl)-[1,1′-biphenyl]-4-sulfonamide] displayed a half-inhibitory concentration (IC50) in the experiment on H1299 cell line of 33.8 ± 6.1 µM. The “Counter-Screen Assay (5 μM), inhibition ratio against the other three enzymes” value with enolase, PK, LDH is 5%.
In the experiment with H1299 cell line, `O=c1c2cc(O)ccc2oc2cc(NS(=O)(=O)c3ccc(-c4ccccc4)cc3)cc(O)c12` [Compound 15i, N-(1,7-Dihydroxy-9-oxo-9H-xanthen-3-yl)-[1,1′-biphenyl]-4-sulfonamide] yielded an IC50 of 30.6 ± 2.4 µM. In addition, in the experiment on enolase, PK, LDH, the “Counter-Screen Assay (5 μM), inhibition ratio against the other three enzymes” value came out at 10%.
As to `CC(=O)Oc1ccc2oc3cc(NS(=O)(=O)c4ccc(-c5ccccc5)cc4)cc(O)c3c(=O)c2c1` [Compound 15j, 6-([1,1′-Biphenyl]-4-sulfonamido)-8-hydroxy-9-oxo-9H-xanthen-2-yl acetate], half-maximal inhibition in the experiment with H1299 cell line (IC50) required 31.1 ± 4.5 µM. In the experiment on enolase, PK, LDH, the “Counter-Screen Assay (5 μM), inhibition ratio against the other three enzymes” value stood at 7%.
Consider `O=C(O[C@@H]1Cc2c(O)cc(O)cc2O[C@@H]1c1cc(O)c(O)c(O)c1)c1cc(O)c(O)c(O)c1` [EGCG, epigallocatechin gallate], for which the IC50 in the experiment on H1299 cell was more than 80 µM; with PGAM1, 0.49 µM.
Turning to `Nc1ccn([C@@H]2O[C@H](CO)[C@@H](O)C2(F)F)c(=O)n1` [Gemcitabine, reference compound], in the experiment on H1299 cell line, the IC50 worked out at 0.193 µM.
With `O=C1c2ccccc2C(=O)c2c1cc(S(=O)(=O)Nc1ccc(C(F)(F)F)cc1)c(O)c2O` [PGMI-004A, reference compound], the results for the IC50 in the experiment with H1299 cell and with H1299 cell line were 25.6 µM and 26 ± 2.1 µM, respectively.

(Values after paper PMC6100356, “The Design and Synthesis of N-Xanthone Benzenesulfonamides as Novel Phosphoglycerate Mutase 1 (PGAM1) Inhibitors” (Molecules : A Journal of Synthetic Chemistry and Natural …, 2018).)
